Reference: patent publication US20240360146A1, “BRUTON'S TYROSINE KINASE AND MUTANT DEGRADER, COMPOSITION AND APPLICATION THEREOF” (HANGZHOU HEALZEN THERAPEUTICS CO., LTD., priority 2021, published 2024)

Experiments:
Type in all cases: cell-based
[1] = test system: OCI-LY10 cells; assay: Inhibitory activity on OCI-LY10 cell proliferation (MTS); settings: Homo sapiens, 72 h
Description: (§1) The anti-tumor efficacy of the compounds was tested by measuring their inhibitory effects on OCI-LY10 and Mino cell proliferation. OCI-LY10 and Mino cells were cultured in RPMI-1640 medium containing 10% fetal calf serum. OCI-LY10 and Mino cells were digested, inoculated in a 96-well plate at a cell concentration of 10000 cells/well, and incubated overnight at 37° C., 5% CO2. Compounds of different concentrations (1000 nM, 4-fold dilution, 8 points) were added to the 96-well plate and incubated for 72 h (LY10) or 168 h (Mino) at 37° C. and 5% CO2, and then 20 uL of MTS was added to each well. After incubation for 2 h, 25 μl of 10% SDS was added to each well to terminate the reaction. The absorbance at 490 nm and 650 nm were measured with a microplate reader. IC50 was calculated using GraphPad Prism 5.0.

[2] = test system: Mino cells; assay: Inhibitory activity on Mino cell proliferation (MTS); settings: Homo sapiens, 168 h incubation
Description: as §1

[3] = molecular target: T1, BTK (Homo sapiens, UniProt Q06187); assay: BTK degradation activity test in Mino cells; settings: 16 h incubation, Western blot or Elisa
T1 construct: endogenous in cells; host or cells: Mino cells
Summary of the method: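 DC50 derived by curve fitting of BTK degradation rates versus untreated control across compound concentrations. Mino cells were exposed for 16 h; BTK levels in lysates, normalised via BCA protein, measured by Western blot or ELISA.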

T1 sequence (Q06187 whole entry): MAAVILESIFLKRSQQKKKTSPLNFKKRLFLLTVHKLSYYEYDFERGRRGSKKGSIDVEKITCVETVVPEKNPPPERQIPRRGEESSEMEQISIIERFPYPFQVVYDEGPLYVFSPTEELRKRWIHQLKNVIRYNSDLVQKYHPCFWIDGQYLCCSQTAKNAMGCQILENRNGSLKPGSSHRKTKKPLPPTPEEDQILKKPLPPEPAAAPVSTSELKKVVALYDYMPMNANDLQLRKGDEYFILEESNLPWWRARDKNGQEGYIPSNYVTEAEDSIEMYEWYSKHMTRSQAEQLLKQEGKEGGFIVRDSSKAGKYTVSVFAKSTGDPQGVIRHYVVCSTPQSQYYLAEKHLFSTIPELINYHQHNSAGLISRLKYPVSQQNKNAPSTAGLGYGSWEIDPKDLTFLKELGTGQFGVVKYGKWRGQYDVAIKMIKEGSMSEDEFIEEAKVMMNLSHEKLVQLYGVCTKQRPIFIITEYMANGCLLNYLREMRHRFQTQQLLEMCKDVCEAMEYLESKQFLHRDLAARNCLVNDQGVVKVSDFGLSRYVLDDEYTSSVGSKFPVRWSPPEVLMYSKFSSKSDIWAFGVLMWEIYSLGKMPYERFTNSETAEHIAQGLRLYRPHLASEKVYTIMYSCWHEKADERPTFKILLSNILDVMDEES

SMILES	IC50 [1] [nM]	DC50 [3] [nM]	IC50 [2] [nM]
CN1CCN([C@@H]2CCCN(c3ncc(C(N)=O)c(Nc4ccc(C5CCN(CC6CCN(c7ccc8c(c7)C(=O)N(C7CCC(=O)NC7=O)C8=O)C6)CC5)cc4)n3)C2)C1=O (stereo partly drawn) [Compound 116, 4-((4-(1-((1-(2-(2,6-dioxopiperidin-3-yl)-1,3-dioxoisoindolin-5-yl)pyrrolidin-3-yl)methyl)piperidin-4-yl)phenyl)amino)-2-((R)-3-(3-methyl-2-oxoimidazolin-1-yl)piperidin-1-yl)pyrimidin-5-carboxamide]	0.11	< 1	1.34
CN1CCN([C@@H]2CCCN(c3ncc(C(N)=O)c(Nc4ccc(C5CCN(CC6CCN(c7ccc8c(c7)C(=O)N(C7CCC(=O)NC7=O)C8=O)CC6)CC5)cc4)n3)C2)C1=O (stereo partly drawn) [Compound 117, 4-((4-(1-((1-(2-(2,6-dioxopiperidin-3-yl)-1,3-dioxoisoindolin-5-yl)piperidin-4-yl)methyl)piperidin-4-yl)phenyl)amino)-2-((R)-3-(3-methyl-2-oxoimidazolin-1-yl)piperidin-1-yl)pyrimidin-5-carboxamide]	0.33	< 1	3.08
CN1CCN(C2CC3CC2N(c2cnc(C(N)=O)c(Nc4ccc(C5CCN(CC6CCN(c7ccc8c(c7)C(=O)N(C7CCC(=O)NC7=O)C8=O)CC6)CC5)cc4)n2)C3)C1=O (stereo not shown) [Compound 118, 3-((4-(1-((1-(2-(2,6-dioxopiperidin-3-yl)-1,3-dioxoisoindolin-5-yl)piperidin-4-yl)methyl)piperidin-4-yl)phenyl)amino)-5-(6-(3-methyl-2-oxoimidazolin-1-yl)-2-azabicyclo[2.2.1]heptan-2-yl)pyrazin-2-carboxamide]	0.27	< 1	10.7
CN1CCN([C@@H]2CCCN(c3nnc(C(N)=O)c(Nc4ccc(C5CCN(CC6(C)CCN(c7ccc8c(c7)C(=O)N(C7CCC(=O)NC7=O)C8=O)C6)CC5)cc4)n3)C2)C1=O (stereo partly drawn) [Compound 120, 5-((4-(1-((1-(2-(2,6-dioxopiperidin-3-yl)-1,3-dioxoisoindolin-5-yl)-3-methylpyrrolidin-3-yl)methyl)piperidin-4-yl)phenyl)amino)-3-((R)-3-(3-methyl-2-oxoimidazolin-1-yl)piperidin-1-yl)-1,2,4-triazin-6-carboxamide]	0.21	< 1	1.76
CN1CCN([C@@H]2CCCN(c3nnc(C(N)=O)c(Nc4ccc(C5CCN(CC6(F)CCN(c7ccc8c(c7)C(=O)N(C7CCC(=O)NC7=O)C8=O)C6)CC5)cc4)n3)C2)C1=O (stereo partly drawn) [Compound 121, 5-((4-(1-((1-(2-(2,6-dioxopiperidin-3-yl)-1,3-dioxoisoindolin-5-yl)-3-fluoropyrrolidin-3-yl)methyl)piperidin-4-yl)phenyl)amino)-3-((R)-3-(3-methyl-2-oxoimidazolin-1-yl)piperidin-1-yl)-1,2,4-triazin-6-carboxamide]	0.74	< 1	3.75
CN1CCN([C@@H]2CCCN(c3nnc(C(N)=O)c(Nc4ccc(C5CCN(CC6CCN(c7ccc8c(c7)C(=O)N(C7CCC(=O)NC7=O)C8=O)C6)CC5)cc4)n3)C2)C1=O (stereo partly drawn) [Compound 124, 5-((4-(1-((1-(2-(2,6-dioxopiperidin-3-yl)-1,3-dioxoisoindolin-5-yl)pyrrolidin-3-yl)methyl)piperidin-4-yl)phenyl)amino)-3-((R)-3-(3-methyl-2-oxoimidazolin-1-yl)piperidin-1-yl)-1,2,4-triazin-6-carboxamide]	< 0.26	< 1	4.95
CN1CCN([C@@H]2CCCN(c3nnc(C(N)=O)c(Nc4ccc(N5CCN(CC#Cc6ccc7c(c6)n(C)c(=O)n7C6CCC(=O)NC6=O)CC5)c(F)c4)n3)C2)C1=O (stereo partly drawn) [Compound 227, 5-((4-(4-(3-(1-(2,6-dioxopiperidin-3-yl)-3-methyl-2-oxo-2,3-dihydro-1H-benzo[d]imidazol-5-yl)propan-2-yn-1-yl)piperazin-1-yl)-3-fluorophenyl)amino)-3-((R)-3-(3-methyl-2-oxoimidazolidin-1-yl)piperidin-1-yl)-1,2,4-triazin-6-carboxamide]	0.27	< 1	

Continued by falling IC50 [1], values first:

IC50 [1] [nM]	DC50 [3] [nM]	SMILES	IC50 [2] [nM]
2.55	< 1	CN1CCN([C@@H]2CCCN(c3nnc(C(N)=O)c(Nc4ccc(N5CCN(CC6CCN(c7ccc8c9c(oc8c7)C(=O)N(C7CCC(=O)NC7=O)C9)CC6)CC5)c(F)c4)n3)C2)C1=O (stereo partly drawn) [Compound 223, 5-((4-(4-((1-(2-(2,6-dioxopiperidin-3-yl)-3-oxo-2,3-dihydro-H-benzofuro[2,3-c]pyrrol-6-yl)piperidin-4-yl)methyl)piperazin-1-yl)-3-fluorophenyl)amino)-3-((R)-3-(3-methyl-2-oxoimidazolidin-1-yl)piperidin-1-yl)-1,2,4-triazin-6-carboxamide]	
2.25	< 1	CN1CCN([C@@H]2CCCN(c3nnc(C(N)=O)c(Nc4ccc(N5CCN(CC#Cc6ccc(C(=O)NC7CCC(=O)NC7=O)nc6)CC5)c(F)c4)n3)C2)C1=O (stereo partly drawn) [Compound 224, 5-((4-(4-(3-(6-((2,6-dioxopiperidin-3-yl)carbamoyl)pyridin-3-yl)propan-2-yn-1-yl)piperazin-1-yl)-3-fluorophenyl)amino)-3-((R)-3-(3-methyl-2-oxoimidazolidin-1-yl)piperidin-1-yl)-1,2,4-triazin-6-carboxamide]	
1.78	< 1	CN1CCN([C@@H]2CCCN(c3nnc(C(N)=O)c(Nc4ccc(C5CCN(CC6CCN(c7ccc(N8CCC(=O)NC8=O)cc7)CC6)CC5)c(F)c4)n3)C2)C1=O [Compound 234, (R)-5-((4-(1-((1-(4-(2,4-dioxotetrahydropyrimidin-1(2H)-yl)phenyl)piperidin-4-yl)methyl)piperidin-4-yl)-3-fluorophenyl)amino)-3-(3-(3-methyl-2-oxoimidazolidin-1-yl)piperidin-1-yl)-1,2,4-triazin-6-carboxamide]	
0.63	< 1	Cc1cc(N2CCC(CN3CCC(c4ccc(Nc5nc(N6CCC[C@@H](N7CCN(C)C7=O)C6)nnc5C(N)=O)cc4)CC3)CC2)ccc1N1CCC(=O)NC1=O [Compound 236, (R)-5-((4-(1-((1-(4-(2,4-dioxotetrahydropyrimidin-1(2H)-yl)-3-methylphenyl)piperidin-4-yl)methyl)piperidin-4-yl)phenyl)amino)-3-(3-(3-methyl-2-oxoimidazolidin-1-yl)piperidin-1-yl)-1,2,4-triazin-6-carboxamide]	
0.59	< 1	CN1CCN([C@@H]2CCCN(c3ncc(C(N)=O)c(Nc4ccc(N5CCN(CC6CCN(c7ccc8c(c7)C(=O)N(C7CCC(=O)NC7=O)C8=O)C6)CC5)cc4)n3)C2)C1=O (stereo partly drawn) [Compound 115, 4-((4-(4-((1-(2-(2,6-dioxopiperidin-3-yl)-1,3-dioxoisoindolin-5-yl)pyrrolidin-3-yl)methyl)piperazin-1-yl)phenyl)amino)-2-((R)-3-(3-methyl-2-oxoimidazolin-1-yl)piperidin-1-yl)pyrimidin-5-carboxamide]	5.97
0.38	< 1	CN1CCN([C@@H]2CCCN(c3nnc(C(N)=O)c(Nc4ccc(N5CCC(CN6CCN(c7ccc8c(c7)C(=O)N(C7CCC(=O)NC7=O)C8=O)CC6)CC5)cc4)n3)C2)C1=O (stereo partly drawn) [Compound 119, 5-((4-(4-((4-(2-(2,6-dioxopiperidin-3-yl)-1,3-dioxoisoindolin-5-yl)piperazin-1-yl)methy 1)piperidin-1-yl)phenyl)amino)-3-((R)-3-(3-methyl-2-oxoimidazolin-1-yl)piperidin-1-yl)-1,2,4-triazin-6-carboxamide]	8.09
